Reference: patent US20110020517A1, “TASTE MODIFYING PRODUCT” (priority 2008, published 2011)

Tests used:
[1] = Evaluation for umami/kokumi taste and mouthfeel by a team of 8 trained panelists, in 0.3% aqueous NaCl solution; conditions: 10 ppm in 0.3% aqueous NaCl solution
Method: Liquid 2-(3-phenylpropyl)pyridine was obtained from R.C. Treatt & Co Ltd, UK (reference SA362100/2). It was then diluted into propylene glycol solvent to provide a 10% solution of the 2-(3-phenylpropyl)pyridine, the resulting solution then being added to a 0.3% aqueous NaCl solution to provide a concentration of 2-(3-phenylpropyl)pyridine of 10 ppm.
The sample was evaluated for umami/kokumi taste and mouthfeel by a team of 8 trained panelists.

[2] = prior art, U.S. Pat. No. 5,298,486 column 2 lines 24 to 33; cited from earlier work

SMILES | Description: Mouthfeel [1] | Description: Taste [1] | Kokumi/Umami taste intensity ([1]; scale of 0 to 10, 0 = no Kokumi/Umami effect, 10 = very intense effect) | flavor note [2]
c1ccc(CCCc2ccccn2)cc1 [2-(3-phenylpropyl)pyridine] | Mouthfeel: sweet, | Taste: brown, fatty, | 7 | –
CCCCCCCc1cccnc1 [3-heptylpyridine] | – | – | – | fatty, metallic and fishy
CCCCCCc1cccnc1 [3-hexylpyridine] | – | – | – | fruity
